Assay results as given in patent US8877946B2, “Benzylidene-indolinone compounds and their medical use” (National University of Singapore, priority 2011, dated 2014).

Test system: HuH7 cells
Assay: MTT antiproliferative (growth inhibition) assay on HuH7 cells
Type: cell-based, human
Settings: Homo sapiens, Huh-7, MTT, 72 h incubation, mean and SD of 3 or more independent determinations (Tables 1-8), read-out: IC 50
Description: MTT was purchased from DUCHEFA Biochemie ([…]). Sunitinib, and sodium dodecyl sulfate, bovine serum albuminwere obtained from Sigma Aldrich (Singapore). Sorafenib was purchase from Ontario Chem. Fetal bovine serum (FBS) was obtained from Invitrogen. Human hepatocellular carcinoma cells (HuH-7 and Hep G2), and human diploid fibroblast strain (IMR 90). HuH7 was obtained as gifts from Dr Ho Han Kiat, Department of Pharmacy, NUS. IMR90 and Hep G2 were purchased from American Type Culture Collection (ATCC). HuH-7 cells were cultured in DMEM (Dulbecco's Modified Eagle Medium, high glucose) with 10% v/v fetal bovine serum (FBS), 100 mg/L penicillin G and 100 mg/L streptomycin. IMR 90 cell were cultured in EMEM (Eagle's Minimum Essential Medium), with 10% v/v FBS and 100 mg/L penicillin G and 100 mg/L streptomycin. The cells were sub-cultured when HuH7 or Hep G2 reached a density of 70-80×10^5 cell/T75 flask, and IMR 90 reached 20×10^5 cell/T75 flask. Cells were used within 2-10 passages for viability experiments.
The anti-proliferative activity of the test compounds were determined by the MTT assay. An aliquot (200 μL, 3×10^4 cells/mL for HuH7, 3.75×10^4 cells/mL for Hep G2, and 2×10^4 cells/mL for IMR 90) of medium was added to each well of the microtitre plate. […] The existing medium was removed from each well and replaced by fresh medium (200 μL) containing a known concentration of test compound. The final concentration of DMSO in each well was maintained at 0.5% v/v. (1% v/v was also utilized if the compounds were not soluble) The test compounds were incubated with the cells for another 72 h at 37 deg C., 5% CO2. The medium was then removed from the well and replaced with FBS free medium (200 μL) and MTT (50 μL of 2 mg/mL solution in phosphate buffer saline, pH 7.4). The phosphate buffer saline comprises 10 mM of potassium phosphate and 137 mM sodium chloride. After incubation (3 h) at 37 deg C., 5% CO2, the supernatant was removed and a solution of 200 μL DMSO and 25 μL Sorenson buffer (0.1 M glycine, 0.1 M sodium chloride, adjusted to pH 10.5 with 0.1 M sodium hydroxide) was added to dissolve the formazan crystals in each well. Vehicle control were cells grown in 1% v/v DMSO/Medium for 72 h, 37 deg C., 5% CO2 while blank controls were wells that contained only 200 μL DMSO and 25 μL Sorenson buffer. Absorbances were measured at 570 nm on a microplate reader (Tecan, Infinite 200). The viability of cells at a given concentration of test compound was determined from the expression:
[formula] where abs_compound=absorbance of wells containing cells and test compound, abs_vehicle (Not the same as above. Change to abs_vehicle)=absorbance of vehicle control and abs_blank=absorbance of blank control.
Each concentration of test compound was evaluated at least 3 times on separate occasions, and two different stock solution were used. The IC50 value (concentration that inhibited 50% of cell growth) was determined from the sigmoidal curve obtained by plotting percentage viability versus logarithmic concentration of test compound using GraphPad Prism 5 (San Diego, USA).

Structure (SMILES)	IC50
O=C1Nc2cc(F)c(F)cc2/C1=C\c1ccccc1F [Compound 7-2, (E)-5,6-Difluoro-3-(2-fluoro-benzylidene)-1,3-dihydro-indol-2-one]	> 30 µM
CS(=O)(=O)c1cccc(/C=C2/C(=O)Nc3cc(F)c(F)cc32)c1 [Compound 7-9, (E)-5,6-Difluoro-3-(3-methanesulfonylbenzylidene)-1,3-dihydro-indol-2-one]	13.9 ± 2.03 µM
CS(=O)(=O)c1cccc(/C=C2/C(=O)Nc3cc(Cl)ccc32)c1 [Compound 1-16, (E)-6-Chloro-3-(3-methanesulfonyl-benzylidene)-1,3-dihydro-indol-2-one]	10.8 ± 3.72 µM
CN(C)S(=O)(=O)c1cccc(/C=C2/C(=O)Nc3cc(Cl)ccc32)c1 [Compound 1-20, (E)-3-(6-Chloro-2-oxo-1,2-dihydro-indol-3-ylidenemethyl)-N,N-dimethyl-benzenesulfonamide]	4.87 ± 0.36 µM
O=C1Nc2ccc(F)c(F)c2/C1=C/c1ccc(F)cc1 [Compound 6-4, (Z)-4,5-Difluoro-3-(4-fluoro-benzylidene)-1,3-dihydro-indol-2-one]	14 ± 0.73 µM
N#Cc1cccc(/C=C2/C(=O)Nc3cc(Cl)ccc32)c1 [Compound 1-19, (E) 3-(6-Chloro-2-oxo-1,2-dihydro-indol-3-ylidenemethyl)-benzonitrile]	7.36 ± 0.3 µM
O=C1Nc2ccc(F)c(F)c2C1=Cc1ccccc1C(F)(F)F (mixture of isomers) [Compound 6-5, (E/Z)-4,5-Difluoro-3-(2-trifluoromethyl-benzylidene)-1,3-dihydro-indol-2-one]	> 30 µM
O=C1Nc2cc(Cl)ccc2C1=Nc1cccc(C(F)(F)F)c1 [Compound 8-4, (E/Z) 6-Chloro-3-(3-trifluoromethyl-phenylimino)-1,3-dihydro-indol-2-one]	20.1 ± 1.72 µM
COc1ccc2c(c1)NC(=O)/C2=C/c1ccc(F)cc1 [Compound 5-4, (E)-3-(4-Fluorobenzylidene)-6-methoxy-1,3-dihydro-indol-2-one]	5.36 ± 0.14 µM
O=C1Nc2ccc(Cl)cc2C1=Nc1cccc(C(F)(F)F)c1 [Compound 8-6, (E/Z) 5-Chloro-3-(3-trifluoromethyl-phenylimino)-1,3-dihydro-indol-2-one]	20.3 ± 3.53 µM
CNS(=O)(=O)c1cccc(/C=C2/C(=O)Nc3cc(OC)ccc32)c1 [Compound 5-8, (E)-3-(6-Methoxy-2-oxo-1,2-dihydro-indol-3-ylidenemethyl)-N-methyl-benzenesulphonamide]	0.17 ± 0.02 µM
O=C1Nc2cc(Cl)ccc2/C1=C\c1ccc(C(F)(F)F)cc1 [Compound 1-11, (E)-6-Chloro-3-(4-trifluoromethyl-benzylidene)-1,3-dihydro-indol-2-one]	11 ± 1.78 µM
O=C1Nc2ccc(F)c(F)c2/C1=C/c1ccccc1F [Compound 6-2, (Z)-4,5-Difluoro-3-(2-fluoro-benzylidene)-1,3-dihydro-indol-2-one]	16.9 ± 1.67 µM
COc1ccc2c(c1)NC(=O)/C2=C/c1ccccc1F [Compound 5-2, (E)-3-(2-Fluoro-benzylidene)-6-methoxy-1,3-dihydro-indol-2-one]	0.49 ± 0.05 µM
Cc1cccc(/C=C2/C(=O)Nc3cc(Cl)ccc32)c1 [Compound 1-5, (E)-6-Chloro-3-(3-methyl-benzylidene)-1,3-dihydro-indol-2-one]	11 ± 0.28 µM
CN1C(=O)/C(=C/c2cccc(C(F)(F)F)c2)c2ccc(Cl)cc21 [Compound 8-5, (E)-6-Chloro-1-methyl-3-(3-trifluoromethyl-benzylidene)-1,3-dihydro-indol-2-one]	1.14 ± 0.19 µM
O=C1Nc2ccc(F)c(F)c2/C1=C/c1ccccc1 [Compound 6-1, (Z)-3-Benzylidene-4,5-difluoro-1,3-dihydro-indol-2-one]	31.1 ± 2.12 µM
COc1ccc2c(c1)NC(=O)/C2=C/c1ccc(C(F)(F)F)cc1 [Compound 5-7, (E)-6-Methoxy-3-(4-trifluoromethyl-benzylidene)-1,3-dihydro-indol-2-one]	> 30 µM
CNS(=O)(=O)c1cccc(C=C2C(=O)Nc3cc(F)c(F)cc32)c1 [Compound 7-10]	2.76 ± 0.16 µM
NS(=O)(=O)c1cccc(/C=C2/C(=O)Nc3cc(Cl)ccc32)c1 [Compound 1-17, (E) 3-(6-Chloro-2-oxo-1,2-dihydro-indol-3-ylidenemethyl)-benzene-sulfonamide]	3.41 ± 0.38 µM
CS(=O)(=O)c1cccc(/C=C2/C(=O)Nc3ccc(Cl)cc32)c1 [Compound 2-11, (E)-5-Chloro-3-(3-methanesulfonyl-benzylidene)-1,3-dihydro-indol-2-one]	6.53 ± 0.51 µM
O=C1Nc2cc(F)c(F)cc2/C1=C\c1ccccc1C(F)(F)F [Compound 7-5, (E)-5,6-Difluoro-3-(2-trifluoromethyl-benzylidene)-1,3-dihydro-indol-2-one]	> 30 µM

Other lines, results leading:

IC50	Structure (SMILES)
23.1 ± 4.75 µM	O=C1Nc2ccc(F)cc2/C1=C\c1cccc(OC(F)(F)F)c1 [Compound 4-13, (E)-5-Fluoro-3-(3-trifluoromethoxy-benzylidene)-1,3-dihydro-indol-2-one]
5.61 ± 0.26 µM	O=C1Nc2cc(F)c(F)cc2/C1=C\c1cccc(OC(F)(F)F)c1 [Compound 7-8, (E)-5,6-Difluoro-3-(3-trifluoromethoxyl-benzylidene)-1,3-dihydro-indol-2-one]
9.66 ± 1.59 µM	NS(=O)(=O)c1cccc(C=C2C(=O)Nc3ccc(Cl)cc32)c1 [Compound 2-12, E/Z 3-(5-Chloro-2-oxo-1,2-dihydro-indol-3-ylidenemethyl)-benzenesulfonamide]
20.8 ± 4.02 µM	Cc1ccc(/C=C2/C(=O)Nc3ccc(F)cc32)cc1 [Compound 4-7, (E)-5-Fluoro-3-(4-methyl-benzylidene)-1,3-dihydro-indol-2-one]
15.9 ± 1.14 µM	O=C1Nc2ccc(F)c(F)c2/C1=C/c1cccc(F)c1 [Compound 6-3, (Z)-4,5-Difluoro-3-(3-fluoro-benzylidene)-1,3-dihydro-indol-2-one]
16.4 ± 4.15 µM	COc1cccc(/C=C2/C(=O)Nc3ccc(F)cc32)c1 [Compound 4-8, (E)-5-Fluoro-3-(3-methoxy-benzylidene)-1,3-dihydro-indol-2-one]
10 ± 0.87 µM	O=C1Nc2cc(Cl)ccc2/C1=C\c1cccc(F)c1 [Compound 1-3, (E)-6-Chloro-3-(3-fluoro-benzylidene)-1,3-dihydro-indol-2-one]
10.4 ± 1.99 µM	N#Cc1cccc(/C=C2/C(=O)Nc3ccc(Cl)cc32)c1 [Compound 2-13, (E) 3-(5-Chloro-2-oxo-1,2-dihydro-indol-3-ylidenemethyl)-benzonitrile]
12.7 ± 2.82 µM	O=C1Nc2ccc(Cl)cc2/C1=C\c1ccc(F)cc1 [Compound 2-4, (E)-5-Chloro-3-(4-fluoro-benzylidene)-1,3-dihydro-indol-2-one]
12.7 ± 1.54 µM	CS(=O)(=O)c1cccc(/C=C2/C(=O)Nc3cc(F)ccc32)c1 [Compound 3-9, (E)-6-Fluoro-3-(3-methanesulfonyl-benzylidene)-1,3-dihydro-indol-2-one]
7.92 ± 1.45 µM	O=C1Nc2ccc(Cl)cc2/C1=C\c1ccc(C(F)(F)F)cc1 [Compound 2-8, (E)-5-Chloro-3-(4-trifluoromethylbenzylidene)-1,3-dihydro-indol-2-one]
4.04 ± 0.54 µM	O=C1Nc2ccc(F)cc2/C1=C\c1cccc(C(F)(F)F)c1 [Compound 4-10, (E)-5-Fluoro-3-(3-trifluoromethyl-benzylidene)-1,3-dihydro-indol-2-one, reference compound]
2.41 ± 1.07 µM	O=C1Nc2cc(F)ccc2/C1=C\c1cccc(F)c1 [Compound 3-3, (E)-6-Fluoro-3-(3-fluoro-benzylidene)-1,3-dihydro-indol-2-one]
12.2 ± 0.64 µM	COc1cccc(/C=C2/C(=O)Nc3cc(Cl)ccc32)c1 [Compound 1-7, (E)-6-Chloro-3-(3-methoxy-benzylidene)-1,3-dihydro-indol-2-one]
13.3 ± 2.31 µM	O=C1Nc2ccc(F)cc2/C1=C\c1cccc(F)c1 [Compound 4-3, (E)-5-Fluoro-3-(3-fluoro-benzylidene)-1,3-dihydro-indol-2-one]
> 30 µM	O=C1Nc2ccc(F)cc2/C1=C\c1ccccc1F [Compound 4-2, (E)-5-Fluoro-3-(2-fluoro-benzylidene)-1,3-dihydro-indol-2-one]
